Consider four compounds from patent publication US11369592B2 (priority 2020, dated 2022).

Like-named read-outs stand apart in the source and are kept apart here. Bounds are passed on as bounds.

One data set deals with endogenous esterases. The following applies: Kang (1996) Glycobiology; cited from earlier work.
The conditions of data set [1]: over the tolerated dose range; cited from earlier work.
Data set [2] concerns SARS-CoV-2. Put plainly: SARS-CoV-2 apical infectious titre in MucilAir-Pool (TCID50). As to conditions: for reduction of SARS-CoV-2 titre at apical side: 48 hours.
Data set [3] relates to Parainfluenza virus 3/14702. Kind of data set: CPE inhibition assay (visual and neutral red). The following applies: for EC50 (cell spans EC50, CC50, SI): MA-104 or MDCK, Visual or Neutral Red, concentration range 0.3-300.
In data set [4] the test system is Influenza A H1N1/California/07/2009. Put plainly: CPE inhibition assay (visual and neutral red). As to conditions: for EC50: Influenza A virus, H1N1; for EC50 (cell spans EC50, CC50, SI): MA-104 or MDCK, Visual or Neutral Red, concentration range 0.3-300.
For data set [5] the following is noted: cited from earlier work.
For data set [6], the system named is MucilAir™-Pool human airway epithelium. Put plainly: Cilia beating frequency (CBF) on MucilAir-Pool, Phase 1. Type of data set: cell-based. As to conditions: Day 3, room temperature. The protocol:
Effect on cilia included cilia motion: Cilia Beating Frequency (CBF).
(§1) Repeated basolateral exposure once a day of test compounds on MucilAir™-Pool. Transepithelial electrical resistance (TEER) was assessed each day. LDH release indicating cytotoxicity, was measured at Day 2 and 3 (24 hours accumulation). Cilia beating frequency (CBF) was measured once, at the end of the experiment, at Day 3. (FIG. 7)
(§2) Number of concentrations: 3 doses • Celgosivir=100, 30 and […] on basolateral side in 0.2% DMSO and 2% fetal bovine serum
Cilia beating frequency was monitored using a MAKO G030B camera connected to a ZEISS Primovert microscope with a 5× objective.
CBF measurement is based on the capture of 256 frames at high frequency rate (125 frames per second) at room temperature via the specific package of software. The frequency is expressed as Hertz and was calculated using an Epithelix software.

Data set [7] has the same test system. Put plainly: Lactate dehydrogenase (LDH) cytotoxicity assay on MucilAir-Pool, Phase 1. Type of data set: cell-based. How it is done: (§3) The testing strategies includes basolateral exposure of test compounds on MucilAir™-Pool.
(§4) Global markers of Toxicity included (1) Tissue integrity monitoring: Trans-epithelial electrical resistance (TEER) measurement and (2) Cytotoxicity: Lactate dehydrogenase (LDH) assay.
Repeated basolateral exposure once a day of test compounds on MucilAir™-Pool. Transepithelial electrical resistance (TEER) was assessed each day. LDH release indicating cytotoxicity, was measured at Day 2 and 3 (24 hours accumulation). Cilia beating frequency (CBF) was measured once, at the end of the experiment, at Day 3. (FIG. 7) […]
Lactate dehydrogenase is a stable cytoplasmic enzyme that is rapidly released into the culture medium upon rupture of the plasma membrane. 100 μL basolateral medium collected at each time-point was incubated with the reaction mixture of the Cytotoxicity Detection Kit^PLUS, following manufacturer's instructions (Sigma, Roche, 11644793001). The amount of the released LDH was then quantified by measuring the absorbance of each sample at 490 nm with a microplate reader. To determine the percentage of cytotoxicity, the following equation was used (A=absorbance values): Cytotoxicity (%)=(A (exp value)−A (low control)/A (high control)−A (low control))*100
The high control value was obtained by 10% Triton X-100 treatment 24 hours prior to the assay. Triton X-100 causes a massive LDH release and corresponds to 100% cytotoxicity.

The subject of data set [8] is Influenza H5 N1/Duck/MN/1525/81. Kind of data set: organism not typed.
For data set [9], the system named is Influenza B/Florida/4/2006. Put plainly: CPE inhibition assay (visual and neutral red). The following applies: for EC50: Influenza B virus; for EC50 (cell spans EC50, CC50, SI): MA-104 or MDCK, Visual or Neutral Red, concentration range 0.3-300.
Data set [10] deals with MucilAir™-Pool human airway epithelium infected with SARS-CoV-2. Put plainly: Tissue integrity (TEER) upon SARS-CoV-2 infection in MucilAir-Pool, Phase 2. Type of data set: cell-based.
Data set [11] has as its system SARS-CoV-2. Kind of data set: SARS-CoV-2 apical replication in MucilAir-Pool (genome copies ORF1b-nsp14, Taqman RT-PCR). The data set is classed as cell-based. On the technique in general: In qPCR the cycle at which signal appears reflects the starting amount.
The subject of data set [12] is Influenza B/Brisbane/60/2008. Kind of data set: CPE inhibition assay (visual and neutral red). The following applies: for EC50: Influenza B virus; for EC50 (cell spans EC50, CC50, SI): MA-104 or MDCK, Visual or Neutral Red, concentration range 0.3-300.
The test system of data set [13] is Influenza H5 N1/Duck/MN/1525/81.
The test system of data set [14] is MucilAir™-Pool human airway epithelium. Put plainly: Tissue integrity (TEER) of uninfected MucilAir-Pool, Phase 1. Type of data set: cell-based. The following applies: all three tested concentrations, up to three days; threshold 100 Ω·cm^2. How it is done:
as §3, §4, §1, §2
TEER is a dynamic parameter that reflects the state of epithelia and is typically between 200 to 600 Ω·cm^2. An increase of the TEER value reflects a blockage of the ion channel activities. A notable decrease of the TEER values (but >100 Ω·cm^2) could be observed in certain cases, reflecting an activation of the ion channels. Disruption of cellular junction or holes in the epithelia result in TEER values below 100 Ω·cm^2. […]
After addition of 200 μl of 0.9% saline solution to the apical compartment of MucilAir™ cultures, resistance was measured with an EVOMX volt-ohm-meter (World Precision Instruments UK, Stevenage) for each condition. […]

The next data set relates to Human rhinovirus 14/1059. Put plainly: CPE inhibition assay (visual and neutral red). The following applies: for EC50 (cell spans EC50, CC50, SI): MA-104 or MDCK, Visual or Neutral Red, concentration range 0.3-300; for EC50: Rhinovirus B.
Data set [15] can be described thus: Pharmacokinetic simulations using CELADEN castanospermine parameters. The arrangement: species or system human. The following applies: linear extrapolation. How it is done:
It is known that a steady state minimum castanospermine concentration of 400 nanograms/ml is associated with a 50 mg/kg BID dose in mice and that the antiviral effect of celgosivir in vivo seems to be correlated with the minimum steady state concentration of castanospermine. […] International Publication No. WO 2014/143907 discloses pharmacokinetic parameters for castanospermine for the CELADEN study. […] Extrapolating linearly, therefore, the minimum protective dose (achieving 400 nanograms/ml steady state minimum) is approximately 40 mg every 6h, 75 mg every 8 h and 225 mg every 12 h. Further, WO 2014/143907 discloses that the CELADEN study regimen produce a steady state maximum castanospermine concentration of 5100 nanograms/ml. […] The FDA has published generic scaling factors to adjust mg/kg dosing in animals to mg/kg dosing in humans. Generically for mice, that scaling factor is 12. Therefore, 50 mg/kg BID is equivalent to a dose of 4.2 mg/kg BID in humans, which for a 60 kg human is equivalent to 250 mg. The same dose administered three or four times daily is equivalent to 167 mg and 125 mg and 2.8 and 2.1 mg/kg respectively. In a 60 kg human, the maximum single dose is 6.7 mg/kg, and the maximum daily dose is 10 mg/kg.

The conditions of data set [16]: mice; 50 mg/kg BID dose; cited from earlier work.

By EC50 is commonly meant the concentration giving half of the maximal effect. For `CCCC(=O)O[C@H]1CN2CC[C@H](O)[C@@H]2[C@@H](O)[C@@H]1O` [Celgosivir, 6-O-butanoyl castanospermine], the conversion to castanospermine result in the data set on endogenous esterases was “rapidly converted by endogenous esterases to castanospermine”. Besides, the “crossing of cell membranes” value with endogenous esterases is “readily crosses cell membranes”. Also, the pharmacokinetics versus dose result in [1] is reported as “linear with dose”. For the same compound, the “reduction of SARS-CoV-2 titre at apical side” value in the data set on SARS-CoV-2 [2] (30 mM (so in the source)) is listed as 1 log10; in the data set with SARS-CoV-2 [2] (100 mM (so in the source)), 1.9 log10. Also, the “yield of viral progeny” value with SARS-CoV-2 [2] (3 microM) is on record as “diminished extent”; in the data set on SARS-CoV-2 [2] (30 and 100 microM), “decreased”. In addition, the “reducing effect on SARS-CoV-2 titre” value with SARS-CoV-2 [2] (72 hours, concentration not given) is 1.1 log. Besides, the EC50 (in data set [3]; in data set [4]; in [8]; in [9]; in data set [12]; with Human rhinovirus 14/1059) was greater than 300 µM throughout. Moreover, the “EC50 (cell spans EC50, CC50, SI)” value (in [3]; in data set [4]; in data set [9]; in [12]; in data set [13]; with Human rhinovirus 14/1059) was “Not active” throughout. Besides, the adverse event profile result in data set [5] (CELADEN study dose) is recorded as “higher incidence of GI effects, but not increased severity”. In addition, the “maximum daily dose as a total dose” value in data set [5] (human, in theory) is given as 600 mg. For the same compound, the “maximum dose as a single dose” value in data set [5] (human, in theory) is reported as 400 mg. The “cilia motion (cilia beating frequency)” value in data set [6] is “did not modify significantly”. Further, the “cytotoxicity (LDH release)” value in data set [7] (Day 2 and 3, threshold limit 5% cytotoxicity) is reported as “No cytotoxicity”. Moreover, in data set [7] (concentrations at or below 100 microM), the “evidence of cytotoxicity (TEER, cytotoxicity and CBF values versus controls)” value is “did not exhibit evidence of cytoxicity”. The “effect against virus-induced cytopathology” value in data set [10] (3 microM) was “diminished extent”; in [10] (30 and 100 microM), “protective effective”. For the same compound, in data set [10] (30 and 100 μM, 48 and 72 hours post-inoculation), the “SARS-CoV-2 induced decrease of TEER” value is listed as “prevented”. Further, the “reduction of viruses (genome copies)” value is recorded as 1.2 log10 in the data set on SARS-CoV-2 [11] (30 mM (so in the source), 48 hours); 0.9 log10 in the data set on SARS-CoV-2 [11] (30 mM (so in the source), later time point (72 hours)); 1.4 log10 in the data set on SARS-CoV-2 [11] (100 mM (so in the source), 48 hours); 1 log10 in the data set on SARS-CoV-2 [11] (100 mM (so in the source), later time point (72 hours)). Further, the “inhibition of SARS-CoV-2 replication, dose relation” value in the data set on SARS-CoV-2 [11] (3 doses, basolateral once a day for 3 days) was “dose dependent inhibition”. Moreover, the SARS-CoV-2 replication entry is given as “diminished extent” in the data set with SARS-CoV-2 [11] (3 microM); “decreased” with SARS-CoV-2 [11] (30 and 100 microM). Besides, the “Epithelial barrier function (TEER)” value in data set [14] is on record as > 100 Ω·cm^2. Also, the “minimum protective dose (achieving 400 nanograms/ml steady state minimum)” value in [15] (every 6h) is recorded as “approximately 40 mg”; in data set [15] (every 8 h), roughly 75 mg; in data set [15] (every 12 h), roughly 225 mg.
Take `NC(=O)c1ncn([C@@H]2O[C@H](CO)[C@@H](O)[C@H]2O)n1` [Ribavirin, reference compound]: the EC50 (in [3]; in [4]; in data set [8]; in data set [9]; in [12]; in the data set on Human rhinovirus 14/1059) was less than 10 µM each time.
As to `O[C@H]1[C@H](O)[C@@H](O)CN2CC[C@H](O)[C@H]12` [castanospermine, (1S,6S,7R,8aR)-Tetrahydroxyoctahydroindolizine], the EC50 (in [3]; in data set [4]; in data set [8]; in data set [9]; in [12]; in the data set on Human rhinovirus 14/1059) was greater than 300 µM in each case. Moreover, the “EC50 (cell spans EC50, CC50, SI)” value in data set [3] was “Not active”; in data set [4] it was “Not active”; in data set [9], “Not active”; in data set [12], “Not active”; in [13] (MA-104 or MDCK, Visual or Neutral Red, concentration range 0.3-300), “Not active”; in the data set with Human rhinovirus 14/1059 it was “Not active”. Moreover, the “steady state maximum castanospermine concentration” value in data set [5] (CELADEN study regimen) is on record as 5100 nanograms/ml. Moreover, the “steady state minimum castanospermine concentration” value in data set [16] is listed as 400 nanograms/ml.
As to Triton X-100 [reference compound], in data set [7] (10% Triton X-100 solution, apical, 24 h, high control), the “induced toxicity (LDH release)” value was 100%.
